According to US20060263802A1 (priority 2003, published 2006):
“Also recorded” adds a separate entry of the source.

How the values were obtained:
Type in all cases: binding
[1] = system: human monoclonal antibody CRJA
[2] = system: human monoclonal antibody CR57
[3] = system: human monoclonal antibody CR57; remark: listed apart in the source
[4] = system: human monoclonal antibody CRJB
[5] = system: human monoclonal antibody CRJA; remark: listed apart in the source
[6] = system: human monoclonal antibody CRJB; remark: listed apart in the source

Row | Sequence | Binding of CRJA (10 μg/ml) to looped/cyclic peptide (PEPSCAN-ELISA) [1] | Binding of CR57 (10 μg/ml) to looped/cyclic peptide (PEPSCAN-ELISA) [2] | Binding of CR57 to linear peptide (PEPSCAN-ELISA signal) [3] | Binding of CRJB (10 μg/ml) to looped/cyclic peptide (PEPSCAN-ELISA) [4] | Binding of CRJA to linear peptide (PEPSCAN-ELISA signal) [5] | Binding of CRJB to linear peptide (PEPSCAN-ELISA signal) [6] | Binding of CRJA (10 μg/ml) to looped/cyclic peptide (PEPSCAN-ELISA signal) [1] | Binding of CR57 (10 μg/ml) to looped/cyclic peptide (PEPSCAN-ELISA signal) [2] | Binding of CRJB (10 μg/ml) to looped/cyclic peptide (PEPSCAN-ELISA signal) [4] | Binding of CRJA to looped/cyclic peptide (PEPSCAN-ELISA signal) [1] | Binding of CR57 to looped/cyclic peptide (PEPSCAN-ELISA signal) [2] | Binding of human monoclonal antibody CR57 to linear peptide (PEPSCAN-ELISA signal) [3] | Binding of CRJB to looped/cyclic peptide (PEPSCAN-ELISA signal) [4] | Binding of human monoclonal antibody CRJA to linear peptide (PEPSCAN-ELISA signal) [5] | Binding of human monoclonal antibody CRJB to linear peptide (PEPSCAN-ELISA signal) [6] | binding of antibody CRJB to looped/cyclic peptide (PEPSCAN OD) [4]
1 | DAHYKSVRTWNEILP | 98 | 90 | 59 | 100 | 107 | 121 |  |  |  |  |  |  |  |  |  | 
2 | PYPDYRWLRTVKTTK |  |  | 65 |  | 84 | 93 | 76 | 88 | 92 |  |  |  |  |  |  | 
3 | GIILGPDGNVLIPEM | 92 | 108 | 107 | 93 | 107 | 132 |  |  |  |  |  |  |  |  |  | 
4 | DGDEAEDFVEVHLPD |  |  |  |  |  |  |  |  |  | 71 | 71 | 85 | 102 | 97 | 123 | 
5 | KWCPPDQLVNLHDFR | 102 | 118 | 89 | 100 | 97 | 113 |  |  |  |  |  |  |  |  |  | 
6 | MTTKSVSFRRLSHLR | 79 | 68 | 59 | 8 | 74 | 116 |  |  |  |  |  |  |  |  |  | 
7 | GCLRVGGRCHPHVNG | 105 | 103 | 85 | 112 | 98 | 125 |  |  |  |  |  |  |  |  |  | 
8 | RAAYNWKMAGDPRYE |  |  | 90 |  | 92 | 130 | 86 | 141 | 101 |  |  |  |  |  |  | 
9 | SVSFRRLSHLRKLVP | 98 | 94 | 64 | 84 | 101 | 123 |  |  |  |  |  |  |  |  |  | 
10 | KESLVIISPSVADLD |  |  | 86 |  | 123 | 117 | 83 | 86 | 85 |  |  |  |  |  |  | 
11 | ESLHNPYPDYRWLRT |  |  | 92 |  | 80 | 132 | 106 | 123 | 92 |  |  |  |  |  |  | 
12 | TVKTTKESLVIISPS |  |  | 76 |  | 93 | 116 | 92 | 94 | 55 |  |  |  |  |  |  | 
13 | TKESLVIISPSVADL |  |  | 86 |  | 102 | 112 | 88 | 99 | 80 |  |  |  |  |  |  | 
14 | CRAAYNWKMAGDPRY |  |  | 87 |  | 113 | 118 | 111 | 107 | 68 |  |  |  |  |  |  | 
15 | NHDYTIWMPENPRLG |  |  | 71 |  | 108 | 119 | 123 | 170 | 186 |  |  |  |  |  |  | display reactivity; also recorded: clearly bound
16 | LSGFSYMELKVGYIL |  |  | 71 |  | 82 | 132 | 83 | 72 | 74 |  |  |  |  |  |  | 
17 | VVEELVRKREECLDA | 59 | 30 | 62 | 5 | 90 | 108 |  |  |  |  |  |  |  |  |  | 
18 | NFVGYVTTTFKRKHF |  |  | 65 |  | 88 | 107 | 83 | 92 | 98 |  |  |  |  |  |  | 
19 | EAENYTNFVGYVTTT |  |  | 69 |  | 62 | 117 | 54 | 55 | 60 |  |  |  |  |  |  | 
20 | LVPGFGKAYTIFNKT | 58 | 87 | 54 | 58 | 83 | 112 |  |  |  |  |  |  |  |  |  | 
21 | LDKLGPWSPIDIHHL |  |  | 55 |  | 59 | 99 | 82 | 93 | 65 |  |  |  |  |  |  | 
22 | LVRKREECLDALESI | 101 | 105 | 86 | 82 | 107 | 130 |  |  |  |  |  |  |  |  |  | 
23 | EIEHLVVEELVRKRE | 93 | 107 | 82 | 89 | 86 | 113 |  |  |  |  |  |  |  |  |  | 
24 | YTIFNKTLMEADAHY | 108 | 119 | 104 | 79 | 90 | 147 |  |  |  |  |  |  |  |  |  | 
